Data from patent publication US8735360B2 (priority 2009, dated 2014).
Positions of bridges follow the written chain, without caps; N, C: chain ends. Residues, ends and D or L forms follow the SMILES beside them.

Columns and labels:
GC-C [1] = target: T1, GC-C (Homo sapiens, UniProt P25092); assay type: cell-based; details: cGMP response in T84 cells
GC-C [2] = target: T1, GC-C; assay type: binding
female CD-1 mice = assay type: in vivo; details: oral gavage, % distance travelled by charcoal front in small intestine

T1 sequence (P25092 24-1073 limits assumed): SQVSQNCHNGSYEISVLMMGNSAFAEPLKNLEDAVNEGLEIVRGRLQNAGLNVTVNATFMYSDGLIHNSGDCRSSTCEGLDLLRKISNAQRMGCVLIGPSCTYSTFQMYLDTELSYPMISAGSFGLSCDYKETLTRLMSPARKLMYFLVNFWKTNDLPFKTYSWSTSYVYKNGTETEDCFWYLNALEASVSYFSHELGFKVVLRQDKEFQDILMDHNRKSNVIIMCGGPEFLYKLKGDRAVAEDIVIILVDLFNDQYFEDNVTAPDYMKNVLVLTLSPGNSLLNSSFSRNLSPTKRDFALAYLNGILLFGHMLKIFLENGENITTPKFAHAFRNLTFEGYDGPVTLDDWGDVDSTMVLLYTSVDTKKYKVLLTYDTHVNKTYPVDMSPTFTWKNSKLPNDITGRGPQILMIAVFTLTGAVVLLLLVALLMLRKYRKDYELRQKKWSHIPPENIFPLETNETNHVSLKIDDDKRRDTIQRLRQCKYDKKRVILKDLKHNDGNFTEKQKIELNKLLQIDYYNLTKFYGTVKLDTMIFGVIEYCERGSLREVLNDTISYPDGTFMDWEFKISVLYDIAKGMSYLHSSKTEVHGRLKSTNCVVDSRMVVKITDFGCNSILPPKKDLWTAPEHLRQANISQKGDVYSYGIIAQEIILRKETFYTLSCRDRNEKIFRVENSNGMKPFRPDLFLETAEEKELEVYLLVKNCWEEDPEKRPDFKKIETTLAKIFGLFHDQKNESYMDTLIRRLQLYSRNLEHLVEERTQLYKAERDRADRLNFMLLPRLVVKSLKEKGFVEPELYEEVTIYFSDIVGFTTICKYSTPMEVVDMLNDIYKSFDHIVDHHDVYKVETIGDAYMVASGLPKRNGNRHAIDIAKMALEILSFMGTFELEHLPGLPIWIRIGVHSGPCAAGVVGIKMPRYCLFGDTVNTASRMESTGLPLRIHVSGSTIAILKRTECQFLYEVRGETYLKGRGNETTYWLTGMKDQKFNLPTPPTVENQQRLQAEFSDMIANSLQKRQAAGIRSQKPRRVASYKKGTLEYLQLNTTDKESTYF

Compound | Ratio EC50 pH 8/EC50 pH 5 (GC-C [1]) | Ratio Ki pH 8/Ki pH 5 (GC-C [2]) | ED50 in the gastrointestinal transit assay (female CD-1 mice) [µg/kg]
C[C@@H]1NC(=O)[C@@H]2CCCN2C(=O)[C@H](CC(N)=O)NC(=O)[C@@H]2CSSC[C@H](NC(=O)[C@H](CC(=O)O)NC(=O)[C@H](CC(=O)O)NC(=O)[C@@H](N)CC(=O)O)C(=O)N[C@H]3CSSC[C@H](NC1=O)C(=O)N[C@@H]([C@@H](C)O)C(=O)NCC(=O)N[C@H](C(=O)N[C@@H](Cc1ccc(O)cc1)C(=O)O)CSSC[C@H](NC(=O)[C@H](Cc1ccc(O)cc1)NC(=O)[C@H](CCC(=O)O)NC3=O)C(=O)N2 [Peptide 5, DDDCCEYCCNPACTGCY] | 256 | 5.52 | 7.54
C[C@@H]1NC(=O)[C@@H]2CCCN2C(=O)[C@H](CC(N)=O)NC(=O)[C@@H]2CSSC[C@H](NC(=O)[C@H](CC(=O)O)NC(=O)[C@H](CC(=O)O)NC(=O)[C@@H]3CCCN3)C(=O)N[C@H]3CSSC[C@H](NC1=O)C(=O)N[C@@H]([C@@H](C)O)C(=O)NCC(=O)N[C@H](C(=O)N[C@@H](Cc1ccc(O)cc1)C(=O)O)CSSC[C@H](NC(=O)[C@H](Cc1ccc(O)cc1)NC(=O)[C@H](CCC(=O)O)NC3=O)C(=O)N2 [Peptide 8, PDDCCEYCCNPACTGCY] (H-PDDCCEYCCNPACTGCY-OH; disulfide 4-9, 5-13, 8-16) | 58.2 | – | –
CC(C)C[C@@H]1NC(=O)[C@H](CCC(=O)O)NC(=O)[C@@H]2CSSC[C@@H]3NC(=O)[C@H](C)NC(=O)[C@@H]4CCCN4C(=O)[C@H](CC(N)=O)NC(=O)[C@H](CSSC[C@H](NC(=O)[C@H](CC(=O)O)NC(=O)[C@H](CC(=O)O)NC(=O)[C@@H](N)CC(N)=O)C(=O)N2)NC(=O)[C@H](CSSC[C@@H](C(=O)N[C@@H](Cc2ccc(O)cc2)C(=O)O)NC(=O)CNC(=O)[C@H]([C@@H](C)O)NC3=O)NC1=O [Peptide 11, NDDCCELCCNPACTGCY] | 2.7 | 6.43 | –
CC(C)C[C@@H]1NC(=O)[C@H](CCC(=O)O)NC(=O)[C@@H]2CSSC[C@@H]3NC(=O)[C@H](C)NC(=O)[C@@H]4CCCN4C(=O)[C@H](CC(N)=O)NC(=O)[C@H](CSSC[C@H](NC(=O)[C@H](CC(=O)O)NC(=O)[C@H](CC(=O)O)NC(=O)[C@@H]4CCCN4)C(=O)N2)NC(=O)[C@H](CSSC[C@@H](C(=O)N[C@@H](Cc2ccc(O)cc2)C(=O)O)NC(=O)CNC(=O)[C@H]([C@@H](C)O)NC3=O)NC1=O [Peptide 18, PDDCCELCCNPACTGCY] (H-PDDCCELCCNPACTGCY-OH; disulfide 4-9, 5-13, 8-16 (inferred); N-terminus and C-terminus assumed) | 205.2 | – | –
C[C@H](N)C(=O)N[C@@H](CC(=O)O)C(=O)N[C@@H](CC(=O)O)C(=O)N[C@H]1CSSC[C@@H]2NC(=O)[C@@H]3CSSC[C@@H](C(=O)N[C@@H](Cc4ccc(O)cc4)C(=O)O)NC(=O)CNC(=O)[C@H]([C@@H](C)O)NC(=O)[C@H](CSSC[C@H](NC1=O)C(=O)N[C@@H](CCC(=O)O)C(=O)N[C@@H](Cc1ccc(O)cc1)C(=O)N3)NC(=O)[C@H](C)NC(=O)[C@@H]1CCCN1C(=O)[C@H](CC(N)=O)NC2=O [Peptide 9, ADDCCEYCCNPACTGCY] | 79.8 | 1.29 | –
CC(C)C[C@@H]1NC(=O)[C@H](CCC(=O)O)NC(=O)[C@@H]2CSSC[C@@H]3NC(=O)[C@H](C)NC(=O)[C@@H]4CCCN4C(=O)[C@H](CC(N)=O)NC(=O)[C@H](CSSC[C@H](NC(=O)[C@H](CC(=O)O)NC(=O)[C@H](CC(=O)O)NC(=O)[C@@H](N)CC(=O)O)C(=O)N2)NC(=O)[C@H](CSSC[C@@H](C(=O)O)NC(=O)CNC(=O)[C@H]([C@@H](C)O)NC3=O)NC1=O [Peptide 20, DDDCCELCCNPACTGC] (H-DDDCCELCCNPACTGC-OH; disulfide 4-9, 5-13, 8-16 (inferred); N-terminus and C-terminus assumed) | 90 | 3.6 | –
C[C@@H]1NC(=O)[C@@H]2CCCN2C(=O)[C@H](CC(N)=O)NC(=O)[C@@H]2CSSC[C@H](NC(=O)[C@H](CC(=O)O)NC(=O)[C@H](CC(=O)O)NC(=O)[C@@H](N)CC(N)=O)C(=O)N[C@H]3CSSC[C@H](NC1=O)C(=O)N[C@@H]([C@@H](C)O)C(=O)NCC(=O)N[C@H](C(=O)N[C@@H](Cc1ccc(O)cc1)C(=O)O)CSSC[C@H](NC(=O)[C@H](Cc1ccc(O)cc1)NC(=O)[C@H](CCC(=O)O)NC3=O)C(=O)N2 [Peptide 3, NDDCCEYCCNPACTGCY] (H-NDDCCEYCCNPACTGCY-OH; disulfide 4-9, 5-13, 8-16 (inferred); N-terminus and C-terminus assumed) | 25.3 | 17.5 | –
CC(C)C[C@@H]1NC(=O)[C@H](CCC(=O)O)NC(=O)[C@@H]2CSSC[C@@H]3NC(=O)[C@H](C)NC(=O)[C@@H]4CCCN4C(=O)[C@H](CC(N)=O)NC(=O)[C@H](CSSC[C@H](NC(=O)[C@H](CC(=O)O)NC(=O)[C@H](CC(=O)O)NC(=O)[C@H](C)N)C(=O)N2)NC(=O)[C@H](CSSC[C@@H](C(=O)N[C@@H](Cc2ccc(O)cc2)C(=O)O)NC(=O)CNC(=O)[C@H]([C@@H](C)O)NC3=O)NC1=O [Peptide 13, ADDCCELCCNPACTGCY] | 62.5 | – | –
CC(C)C[C@@H]1NC(=O)[C@H](CCC(=O)O)NC(=O)[C@@H]2CSSC[C@@H]3NC(=O)[C@H](C)NC(=O)[C@@H]4CCCN4C(=O)[C@H](CC(N)=O)NC(=O)[C@H](CSSC[C@H](NC(=O)[C@H](CC(=O)O)NC(=O)[C@H](CC(=O)O)NC(=O)CN)C(=O)N2)NC(=O)[C@H](CSSC[C@@H](C(=O)N[C@@H](Cc2ccc(O)cc2)C(=O)O)NC(=O)CNC(=O)[C@H]([C@@H](C)O)NC3=O)NC1=O [Peptide 19, GDDCCELCCNPACTGCY] (H-GDDCCELCCNPACTGCY-OH; disulfide 4-9, 5-13, 8-16 (inferred); N-terminus and C-terminus assumed) | 61.5 | – | –
CC(C)C[C@@H]1NC(=O)[C@H](CCC(=O)O)NC(=O)[C@@H]2CSSC[C@@H]3NC(=O)[C@H](C)NC(=O)[C@@H]4CCCN4C(=O)[C@H](CC(N)=O)NC(=O)[C@H](CSSC[C@H](NC(=O)[C@H](CC(=O)O)NC(=O)[C@@H](N)CC(=O)O)C(=O)N2)NC(=O)[C@H](CSSC[C@@H](C(=O)N[C@@H](Cc2ccc(O)cc2)C(=O)O)NC(=O)CNC(=O)[C@H]([C@@H](C)O)NC3=O)NC1=O [Peptide 16, DDCCELCCNPACTGCY] (H-DDCCELCCNPACTGCY-OH; disulfide 3-8, 4-12, 7-15 (inferred); N-terminus and C-terminus assumed) | 26.9 | – | –
C[C@@H]1NC(=O)[C@@H]2CCCN2C(=O)[C@H](CC(N)=O)NC(=O)[C@@H]2CSSC[C@H](NC(=O)[C@H](CC(=O)O)NC(=O)[C@H](CC(=O)O)NC(=O)CN)C(=O)N[C@H]3CSSC[C@H](NC1=O)C(=O)N[C@@H]([C@@H](C)O)C(=O)NCC(=O)N[C@H](C(=O)N[C@@H](Cc1ccc(O)cc1)C(=O)O)CSSC[C@H](NC(=O)[C@H](Cc1ccc(O)cc1)NC(=O)[C@H](CCC(=O)O)NC3=O)C(=O)N2 [Peptide 7, GDDCCEYCCNPACTGCY] (H-GDDCCEYCCNPACTGCY-OH; disulfide 4-9, 5-13, 8-16 (inferred); N-terminus and C-terminus assumed) | 383 | – | –
